Holding throughout (experiment): NCI 60 single concentration growth inhibition
What all share (assay type): cell-based, human

The test system of experiment [1] is SF-268. The following applies: Homo sapiens, SF-268, CNS cancer, read-out: GI%. Summed up: (§1)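 One-concentration growth inhibition used 10 µM over 48 h in RPMI 1640/5% FBS, with sulforhodamine B protein staining as the end point. Percent growth is expressed relative to untreated control cells.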
The test system of experiment [2] is HL-60(TB). As to conditions: Homo sapiens, Leukemia, read-out: GI%. Summed up: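 Read-out is SRB absorbance at 515 nm after TCA fixation (10% for adherent lines, 16% for suspension lines). Drugs were applied for 48 h following a 24 h plating period. Growth percentages came from time-zero, control and treated absorbances.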
Experiment [3] deals with KM12. The following applies: Homo sapiens, KM12, Colon cancer, read-out: GI%. Put shortly: as §1
Experiment [4] deals with SK-MEL-2. As to conditions: Homo sapiens, SK-MEL-2, Melanoma, read-out: GI%. Summed up:
as §1

The test system of experiment [5] is MDA-MB-468. As to conditions: Homo sapiens, MDA-MB-468, Breast cancer, read-out: GI%. Summed up:
as §1

Experiment [6] concerns HOP-62. The following applies: Homo sapiens, HOP-62, Non-small cell lung cancer, read-out: GI%. Summed up:
as §1

Experiment [7] concerns BT-549. As to conditions: Homo sapiens, BT-549, Breast cancer, read-out: GI%. Summed up: as §1
Experiment [8] concerns SN12C. The following applies: Homo sapiens, Renal cancer, read-out: GI%. Summed up:
as §1

Experiment [9] has as its system SK-OV-3. As to conditions: Homo sapiens, SK-OV-3, Ovarian cancer, read-out: GI%. Summed up:
as §1

Experiment [10] concerns RPMI-8226. The following applies: Homo sapiens, RPMI-8226, Leukemia, read-out: GI%. Put shortly:
as §1

The test system of experiment [11] is HS 578T. As to conditions: Homo sapiens, Breast cancer, read-out: GI%. Summed up: as §1
Experiment [12] relates to CCRF-CEM. The following applies: Homo sapiens, Leukemia, read-out: GI%. Put shortly: as §1
Experiment [13] has as its system OVCAR-8. The following applies: Homo sapiens, OVCAR-8, Ovarian cancer, read-out: GI%. Put shortly:
as §1

Experiment [14] concerns SF-295. As to conditions: Homo sapiens, SF-295, CNS cancer, read-out: GI%. Summed up:
as §1

The test system of experiment [15] is MOLT-4. The following applies: Homo sapiens, MOLT-4, Leukemia, read-out: GI%. Put shortly:
(§2)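 Suspension cells such as leukaemia lines are fixed with 80% TCA added to settled cells, to 16% final, while other lines are fixed at 10% TCA. Both are then SRB-stained after 48 h of drug exposure at 37 °C.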

Experiment [16] concerns M14. As to conditions: Homo sapiens, M14, Melanoma, read-out: GI%. Put shortly:
as §1

The subject of experiment [17] is 786-0. The following applies: Homo sapiens, 786-0, Renal cancer, read-out: GI%. Summed up: as §1
For experiment [18], the system named is SR. As to conditions: Homo sapiens, Leukemia, read-out: GI%. Put shortly:
as §2

Experiment [19] relates to ACHN. The following applies: Homo sapiens, Renal cancer, read-out: GI%. Put shortly:
as §1

Experiment [20] deals with SK-MEL-5. The following applies: Homo sapiens, SK-MEL-5, Melanoma, read-out: GI%. Summed up: as §1
Experiment [21] concerns UACC-257. The following applies: Homo sapiens, UACC-257, Melanoma, read-out: GI%. Summed up:
as §1

Experiment [22] relates to A498. The following applies: Homo sapiens, A498, Renal cancer, read-out: GI%. Put shortly: as §1

On to `COc1ccc(-c2nc3cc(Cl)c(Cl)cc3n2CC(=O)NN=Cc2ccc(OC)c(O)c2)cc1` [Compound 10k, 2-(5,6-Dichloro-2-(4-methoxyphenyl)-1H-benzo[d]imidazol-1-yl)-N'-(3-hydroxy-4-methoxybenzylidene)acetohydrazide], for which the inhibition at 10 µM was 45.6% in experiment [1]; 60.8% in experiment [2]; 20.1% in experiment [3]; 40.2% in experiment [4]; 71.2% in experiment [5]; below 5% in experiment [6]. The inhibition at 10 µM in [7] was 31.7%; in experiment [8], 16.3%; in experiment [9] it was below 5%; in experiment [10], 38.8%; in experiment [11], 27.4%; in experiment [12] it was 43.8%. The inhibition at 10 µM in [13] worked out at 29.3%; in [14], 50%; in [15], 76.1%; in experiment [16] it was 34.7%; in experiment [17] it was 25.3%; in experiment [18], 52.2%. Also, the inhibition at 10 µM in [19] came out at 36.6%; in experiment [20], 62.2%; in experiment [21] it was 40.1%; in experiment [22], 29.7%.
Regarding `COc1ccc(-c2nc3cc(Cl)c(Cl)cc3n2CC(=O)NN=Cc2ccc(O)c(OC)c2)cc1` [Compound 10l, 2-(5,6-Dichloro-2-(4-methoxyphenyl)-1H-benzo[d]imidazol-1-yl)-N'-(4-hydroxy-3-methoxybenzylidene)acetohydrazide], the inhibition at 10 µM came to 53.7% in experiment [1]; 44.5% in experiment [2]; 25.4% in experiment [3]; 18.6% in experiment [4]; 99% in [5]; 12.4% in experiment [6]. In addition, the inhibition at 10 µM in experiment [7] turned out to be 50.2%; in [8], 19.9%; in [9], 6.44%; in experiment [10] it was 48.3%; in experiment [11], 32.7%; in [12], 46.9%. Also, the inhibition at 10 µM in experiment [13] is 27.1%; in experiment [14] it was 38.1%; in experiment [15], 70.8%; in experiment [16], 33%; in experiment [17], 30.7%; in experiment [18], 49.1%. The inhibition at 10 µM in experiment [19] was found to be 32.4%; in experiment [20] it was 57.9%; in experiment [21] it was 36.3%; in experiment [22], 16.2%.
In the case of `COC(=O)COc1cc(C=NNC(=O)Cn2c(-c3ccc(OC)cc3)nc3cc(Cl)c(Cl)cc32)ccc1OC` [Compound 10o, Methyl-2-(5-((2-(2-(5,6-dichloro-2-(4-methoxyphenyl)-1H-benzo[d]imidazol-1-yl)acetyl)hydrazono)methyl)-2-methoxyphenoxy)acetate], the inhibition at 10 µM in [1] was 18.6%; in experiment [2], below 5%; in experiment [3] it was below 5%; in [4], 26.6%; in experiment [5], 118%; in [6], below 5%. In addition, the inhibition at 10 µM in experiment [7] is below 5%; in experiment [8] it was 97.2%; in [9], 24.1%; in [10], 17.9%; in [11], 128%; in [12], 16.9%. The inhibition at 10 µM was 69.8% in experiment [13]; below 5% in experiment [14]; 40.4% in experiment [15]; 36.5% in experiment [16]; 11.9% in experiment [17]; 90.9% in experiment [18]. The inhibition at 10 µM in experiment [19] is 71.3%; in [20] it was 6.53%; in [21], 41.4%; in experiment [22], below 5%.
Take `COC(=O)COc1ccc(C=NNC(=O)Cn2c(-c3ccc(OC)cc3)nc3cc(Cl)c(Cl)cc32)cc1OC` [Compound 10p, Methyl-2-(4-((2-(2-(5,6-dichloro-2-(4-methoxyphenyl)-1H-benzo[d]imidazol-1-yl)acetyl)hydrazono)methyl)-2-methoxyphenoxy)acetate]: the inhibition at 10 µM in experiment [1] was below 5%; in experiment [2], below 5%; in experiment [3], below 5%; in [4] it was 24.1%; in [5], 159%; in experiment [6], below 5%. Besides, the inhibition at 10 µM was 15.1% in experiment [7]; 99.5% in [8]; below 5% in experiment [9]; 15.7% in experiment [10]; 118% in experiment [11]; 21.1% in experiment [12]. The inhibition at 10 µM in experiment [13] is 143%; in [14], below 5%; in experiment [15], 13.7%; in experiment [16], below 5%; in [17] it was 162%; in experiment [18] it was 92.8%. Also, the inhibition at 10 µM in experiment [19] was 95.2%; in experiment [20], 6.06%; in experiment [21] it was 22.7%; in experiment [22], below 5%.

Source of the values: publication PMC11844072, “Novel 5,6-dichlorobenzimidazole derivatives as dual BRAFWT and BRAFV600E inhibitors: design, synthesis, anti-cancer activity and molecular dynamics simulations” (BMC Chemistry, 2025).
